Experimental data published in US20180371021A1, “PEPTIDOMIMETIC MACROCYCLES AND USES THEREOF” (Aileron Therapeutics, Inc., priority 2017, published 2018).
Bridge positions count the residues as written; N and C are the ends. Square brackets hold non-standard residues; d marks the D form. Peptide text beside a SMILES is read from it. Phe(4-COOH) = N[C@@H](Cc1ccc(C(=O)O)cc1)C(=O)O; R8 = C=CCCCCCC[C@@](C)(N)C(=O)O; Cba = N[C@@H](CC1CCC1)C(=O)O; S5 = C=CCCC[C@](C)(N)C(=O)O

Columns and labels:
[1] = 39 patients treated with nivolumab; 30 patients treated with pembrolizumab; cited from earlier work
A549 xenograft = A549 xenograft model, AP1 and palbociclib; assay type: in vivo, mice; details: AP1 20 mg/kg qwkx4, palbociclib 75 mg/kg qdx22
Source text: The arrows indicate spontaneous tumor shrinkage in vehicle controls. The arrows with * indicate poor growth of tumors late in the study.

[2] = tested on: SJSA-1 osteosarcoma xenograft; assay: SJSA-1 osteosarcoma xenograft model, AP1 and palbociclib; assay type: in vivo, mice; details: AP1 20 mg/kg qwkx4, palbociclib 75 mg/kg qdx22
Method: (§1) The group was not euthanized, and the mice were allowed to recover. […] Animals were monitored individually. […] Responders were followed for a longer period of time. When the endpoint was reached, the animals were euthanized. […] An aqueous phosphate-buffered saline solution or sodium lactate (50 mM, pH 4.0) solution was used as the vehicle.

[3] = tested on: MCF-7.1 human breast carcinoma xenograft; assay: MCF-7.1 human breast carcinoma xenograft model, AP1 and palbociclib; assay type: in vivo, mice; details: AP1 20 mg/kg qwkx4, palbociclib 75 mg/kg qdx22
Method: as §1, with “Female athymic nude mice were provided with drinking water with 10 μg/mL with 17 beta estradiol supplementation 3 days prior to cell implantation and for the duration of the study. […] The mice were between 8-12 weeks of age at the beginning of the study. […] The” for “The”

[4] = tested on: MCF-7 breast cancer xenograft; assay: MCF-7 breast cancer xenograft study using SP315, SP249 and SP154; assay type: in vivo, mice
Method: Slow release 90 day 0.72 mg 17β-estradiol pellets were implanted subcutaneously (sc) on the nape of the neck one day prior to tumor cell implantation (Day −1). On Day 0, MCF-7 tumor cells were implanted sc in the flank of female nude (Cr1:NU-Foxn1nu) mice. On Day 18, the resultant sc tumors were measured using calipers to determine their length and width, and the mice were weighed. The tumor sizes were calculated using the formula (length×width^2)/2, and expressed as cubic millimeters (mm^3). Mice with tumors smaller than 85.3 mm^3 or larger than 417.4 mm^3 were excluded from the subsequent group formation. Thirteen groups of mice, 10 mice per group, were formed by randomization such that the group mean tumor sizes were essentially equivalent (mean of groups±standard deviation of groups=180.7±17.5 mm^3).
The peptide formulations were prepared once for the duration of the study. The vehicle was used as the vehicle control in the subsequent study.
Each group was assigned to a different treatment regimen. Group 1, as the vehicle negative control group, received the vehicle administered at 8 mL/kg body weight intravenously (I.V.) three times per week from Days 18-39. […] Group 4 received 6.7 mg/kg SP249 as an I.V. injection three times per week. […] Group 9 received 30 mg/kg SP252 as an I.V. injection three times per week.
During the dosing period, the mice were weighed and the tumors were measured 1-2 times per week. Tumor growth inhibition was compared with the vehicle group. Tumor growth inhibition (TGI) was calculated as
where x=day that effect of treatment is being assessed.

[5] = d22, calculated using vehicle median volumes on d0 and d22
[6] = three consecutive measurements > 150% of d1 volume

pembrolizumab: PD-1/PD-L1 antagonist
PRs [1]: 3
SDs [1]: 11
complete responses [1]: 2
shrinkages among SDs [1]: 3

nivolumab: PD-1/PD-L1 antagonist
PRs [1]: 2
SDs [1]: 12
complete responses [1]: 1
shrinkages among SDs [1]: 2

CC(=O)c1c(C)c2cnc(Nc3ccc(N4CCNCC4)cn3)nc2n(C2CCCC2)c1=O [palbociclib, reference compound]
Median tumor volume (mm^3) D1 (A549 xenograft; D1 (start of dosing), A549 xenograft, nude mice): 126 mm^3
Median tumor volume (mm^3) D22 (A549 xenograft; D22, A549 xenograft, nude mice): 288 mm^3
% TGI (±SEM) on d22 (end of dosing) (A549 xenograft; [5]): 62 (7) %
Animals with disease progression (A549 xenograft; [6]): 9/10
Median tumor volume (mm^3) D1 ([2]; D1 (start of dosing), SJSA-1 xenograft, nude mice): 126 mm^3
Median tumor volume (mm^3) D22 ([2]; D22, SJSA-1 xenograft, nude mice): 1418 mm^3
Median time to tumor volume > 1000 mm^3 ([2]; SJSA-1 xenograft): 18 days
Median time to tumor volume > 2000 mm^3 ([2]; SJSA-1 xenograft): 24 days
% TGI (±SEM) on d22 (end of dosing) [2, 5]: 51 (9) %
Animals with disease progression [2, 6]: 9/10
Median tumor volume (mm^3) D1 ([3]; D1 (start of dosing), MCF-7.1 xenograft, nude mice): 108 mm^3
Median tumor volume (mm^3) D22 ([3]; D22, MCF-7.1 xenograft, nude mice): 196 mm^3
Median time to tumor volume > 500 mm^3 ([3]; MCF-7.1 xenograft): 37 days
Median time to tumor volume > 1000 mm^3 ([3]; MCF-7.1 xenograft): 48 days
% TGI (±SEM) on d22 (end of dosing) [3, 5]: 84 (4) %
Animals with disease progression [3, 6]: 8/8

CC[C@H](C)[C@H](NC(=O)[C@H](C)NC(=O)[C@H](C)NC(=O)[C@]1(C)CCCC=CCCCCCC[C@@](C)(NC(=O)[C@H](Cc2ccccc2)NC(=O)[C@@H](NC(=O)[C@H](CC(C)C)NC(C)=O)[C@@H](C)O)C(=O)N[C@@H](CCC(=O)O)C(=O)N[C@@H](Cc2ccc(C(=O)O)cc2)C(=O)N[C@@H](Cc2c[nH]c3ccccc23)C(=O)N[C@@H](C)C(=O)N[C@@H](CCC(N)=O)C(=O)N[C@@H](CC2CCC2)C(=O)N1)C(=O)N[C@H](C)C(N)=O [SP249] (Ac-LTF[R8]E[Phe(4-COOH)]WAQ[Cba][S5]AAI[dA]-NH2; staple 4-11)
mice died ([4]; […] three times per week): 4

CC(=O)N[C@@H](CC(C)C)C(=O)N[C@H](C(=O)N[C@@H](C)C(=O)N[C@]1(C)CCCCCCC=CCCC[C@@](C)(C(=O)N[C@@H](CO)C(=O)N[C@@H](C)C(=O)N[C@@H](C)C(N)=O)NC(=O)[C@H](CC2CCC2)NC(=O)[C@H](CCC(N)=O)NC(=O)[C@H](C)NC(=O)[C@H](Cc2c[nH]c3ccccc23)NC(=O)[C@H](Cc2ccc(O)cc2)NC(=O)[C@H](CCC(=O)O)NC1=O)[C@@H](C)O [SP252]
body weight loss or deaths ([4]; 30 mg/kg three times per week): No body weight loss or deaths
TGI ([4]; 30 mg/kg three times per week, day 32): 88%
